Assay results reported in patent publication US20200392150A1, “Diaryl-B-Lactam Compound and Preparation Method and Pharmaceutical Use Thereof” (Fudan University, priority 2016, published 2020).

What was measured:
Experiment in all cases: In vitro cell growth inhibition assay (MTT)
Format in all cases: cell-based, human
[1] = system: A2780; details: A2780 human ovarian cancer cell line, 48 h, MTT; read-out: IC50 A2780
Description: (§1) 5000 tumor cells per well were seeded into 96-well plate and allowed to adhere overnight. Cells were treated with various concentrations of tested compounds or DMSO (0.2%, as negative control) for 48 h. Then, the medium along with tested compounds or DMSO was discarded and […] per well MTT containing medium (0.5 mg/mL) was added. After incubation at 37° C. for 4 h, the MTT-containing medium was replaced by DMSO (150 μL per well) to dissolve the formazan crystals. Absorbance of the resulting solution was measured by microplate reader (Biotech ELx800) at 540 nm wavelength. Growth inhibition rates were calculated with the absorbance. Half maximal inhibitory concentration (IC50) of each compound was calculated using GraphPad Prism, version 6.0.

[2] = system: Hela; details: Hela human cervical cancer cell line, 48 h, MTT; read-out: IC50 Hela
Description: as §1

[3] = system: MDA-MB-231; details: MDA-MB-231 human breast cancer cell line, 48 h, MTT; read-out: IC50 MDA-MB-231
Description: as §1

[4] = system: SKOV3; details: SK-OV-3; SKOV-3 human ovarian cancer cell line, 48 h, MTT; read-out: IC50 SKOV3
Description: as §1

| Compound | IC50 [1] [nM] | IC50 [2] [nM] | IC50 [3] [nM] | IC50 [4] [nM] |
| --- | --- | --- | --- | --- |
| COc1ccc([C@@H]2N(c3cc(OC)c(OC)c(OC)c3)C(=O)C23CC3)cc1O [Compound 105, (S)-6-(3-hydroxy-4-methoxyphenyl)-5-(3,4,5-trimethoxyphenyl)-5-azaspiro[2.3]hexan-4-one] | 302 | 436 | 326 | 388 |
| COc1ccc([C@H]2[C@@H](CN(C)C)C(=O)N2c2cc(OC)c(OC)c(OC)c2)cc1O [Compound 62, (3R,4R)-3-((dimethylamino)methyl)-4-(3-hydroxy-4-methoxyphenyl)-1-(3,4,5-trimethoxyphenyl)azetidin-2-one] | 7720 | > 20000 | > 20000 | > 20000 |
| COc1ccc([C@H]2/C(=C\C[Si](C)(C)C)C(=O)N2c2cc(OC)c(OC)c(OC)c2)cc1O [Compound 54, (S,E)-4-(3-hydroxy-4-methoxyphenyl)-1-(3,4,5-trimethoxyphenyl)-3-(2-(trimethylsilyl)ethylidene)azetidin-2-one] | > 10000 | > 10000 | > 10000 | > 10000 |
| COc1ccc([C@H]2[C@@H](CNCc3ccccc3)C(=O)N2c2cc(OC)c(OC)c(OC)c2)cc1O [Compound 63, (3R,4R)-3-((benzylamino)methyl)-4-(3-hydroxy-4-methoxyphenyl)-1-(3,4,5-trimethoxyphenyl)azetidin-2-one] | 1020 | 2270 | 1790 | 1670 |
| C=C1C(=O)N(c2cc(OC)c(OC)c(OC)c2)[C@@H]1c1ccc(OC)c(O)c1 [Compound 98, (R)-4-(3-hydroxy-4-methoxyphenyl)-3-methylene-1-(3,4,5-trimethoxyphenyl)azetidin-2-one] | > 20000 | > 20000 | > 20000 | > 20000 |
| C=C1C(=O)N(c2cc(OC)c(OC)c(OC)c2)[C@H]1c1ccc(OC)c(OC(=O)[C@H](C)NC(=O)OC(C)(C)C)c1 [Compound 35, (S)-2-methoxy-5-((S)-3-methylene-4-oxo-1-(3,4,5-trimethoxyphenyl)azetidin-2-yl)phenyl 2-((tert-butoxycarbonyl)amino)propanoate] | 496 | 106 | 496 | 252 |
| COc1ccc([C@H]2/C(=C/c3ccccc3)C(=O)N2c2cc(OC)c(OC)c(OC)c2)cc1O [Compound 57, (S,Z)-3-benzylidene-4-(3-hydroxy-4-methoxyphenyl)-1-(3,4,5-trimethoxyphenyl)azetidin-2-one] | 2540 | 4730 | 3160 | 2990 |
| CCOC(=O)CO[C@H]1C(=O)N(c2cc(OC)c(OC)c(OC)c2)[C@H]1c1ccc(OC)c(O)c1 [Compound 65, ethyl 2-(((2S,3R)-2-(3-hydroxy-4-methoxyphenyl)-4-oxo-1-(3,4,5-trimethoxyphenyl)azetidin-3-yl)oxy)acetate] | 423 | 669 | 672 | 721 |
| COc1ccc([C@H]2[C@H](NS(C)(=O)=O)C(=O)N2c2cc(OC)c(OC)c(OC)c2)cc1O [Compound 79, N-((2S,3S)-2-(3-hydroxy-4-methoxyphenyl)-4-oxo-1-(3,4,5-trimethoxyphenyl)azetidin-3-yl)methanesulfonamide] | 164 | 192 | 254 | 231 |
| C=C1C(=O)N(c2cc(OC)c(OC)c(OC)c2)[C@H]1c1ccc(OC)c(OCC(=O)OC(C)(C)C)c1 [Compound 13, (S)-tert-butyl 2-(2-methoxy-5-(3-methylene-4-oxo-1-(3,4,5-trimethoxyphenyl)azetidin-2-yl)phenoxy)acetate] | > 10000 | > 10000 | > 10000 | > 10000 |
| COc1ccc([C@H]2[C@H](NC(C)=O)C(=O)N2c2cc(OC)c(OC)c(OC)c2)cc1O [Compound 77, N-((2S,3S)-2-(3-hydroxy-4-methoxyphenyl)-4-oxo-1-(3,4,5-trimethoxyphenyl)azetidin-3-yl)acetamide] | 33 | 35 | 47 | 32 |
| COc1ccc([C@H]2CC(=O)N2c2cc(OC)c(OC)c(OC)c2)cc1O [Compound 67, (R)-4-(3-hydroxy-4-methoxyphenyl)-1-(3,4,5-trimethoxyphenyl)azetidin-2-one] | 22 | 30 | 28 | 24 |
| C=C1C(=O)N(c2cc(OC)c(OC)c(OC)c2)[C@H]1c1ccc(OC)c(OS(=O)(=O)c2ccc(OC)c(OC)c2)c1 [Compound 33, (S)-2-methoxy-5-(3-methylene-4-oxo-1-(3,4,5-trimethoxyphenyl)azetidin-2-yl)phenyl 3,4-dimethoxybenzenesulfonate] | 12300 | 12300 | 13400 | 15200 |
| C=C1C(=O)N(c2cc(OC)cc(OC)c2)[C@H]1c1ccc(OC)c(O)c1 [Compound 49, (S)-1-(3,5-dimethoxyphenyl)-4-(3-hydroxy-4-methoxyphenyl)-3-methyleneazetidin-2-one] | 112 | 295 | 125 | 175 |
| C=C1C(=O)N(c2cc(OC)c(OC)c(OC)c2)[C@H]1c1ccc(OC)c(OS(=O)(=O)Cc2ccccc2)c1 [Compound 32, (S)-2-methoxy-5-(3-methylene-4-oxo-1-(3,4,5-trimethoxyphenyl)azetidin-2-yl)phenyl phenylmethanesulfonate] | 7340 | > 20000 | > 20000 | 8660 |
| C=C1C(=O)N(c2cc(OC)c(OC)c(OC)c2)[C@H]1c1ccc(OC)c(OP(=O)(OCc2ccccc2)OCc2ccccc2)c1 [Compound 37, (S)-dibenzyl (2-methoxy-5-(3-methylene-4-oxo-1-(3,4,5-trimethoxyphenyl)azetidin-2-yl)phenyl) phosphate] | > 20000 | > 20000 | > 20000 | > 20000 |
| C=C1C(=O)N(c2cc(OC)c(OC)c(OC)c2)[C@H]1c1cccc(O)c1 [Compound 85, (S)-4-(3-hydroxyphenyl)-3-methylene-1-(3,4,5-trimethoxyphenyl)azetidin-2-one] | 10500 | 15000 | 6640 | 14500 |
| COc1ccc([C@H]2[C@H](NC(=O)c3ccccc3)C(=O)N2c2cc(OC)c(OC)c(OC)c2)cc1O [Compound 78, N-((2S,3S)-2-(3-hydroxy-4-methoxyphenyl)-4-oxo-1-(3,4,5-trimethoxyphenyl)azetidin-3-yl)benzamide] | 27 | 24 | 47 | 45 |
| C=C1C(=O)N(c2cc(OC)c(OC)c(OC)c2)[C@H]1c1ccc(OC)c(OC(=O)[C@@H](NC(=O)OC(C)(C)C)C(C)C)c1 [Compound 36, (S)-2-methoxy-5-((S)-3-methylene-4-oxo-1-(3,4,5-trimethoxyphenyl)azetidin-2-yl)phenyl 2-((tert-butoxycarbonyl)amino)-3-methylbutanoate] | 505 | 501 | 506 | 496 |
| C=C1C(=O)N(c2cc(OC)c(OC)c(OC)c2)[C@H]1c1ccc(C)cc1 [Compound 87, (S)-3-methylene-4-(p-tolyl)-1-(3,4,5-trimethoxyphenyl)azetidin-2-one] | 127 | 209 | 193 | 265 |
| COc1ccc([C@H]2[C@H](C)C(=O)N2c2cc(OC)c(OC)c(OC)c2)cc1OS(=O)(=O)F [Compound 109, 2-methoxy-5-((2R,3S)-3-methyl-4-oxo-1-(3,4,5-trimethoxyphenyl)azetidin-2-yl)phenyl sulfofluoridate] | 21 | 51 | 23 | 34 |
| COc1ccc([C@@H]2[C@H](C)C(=O)N2c2cc(OC)c(OC)c(OC)c2)cc1O [Compound 101, (3S,4S)-4-(3-hydroxy-4-methoxyphenyl)-3-methyl-1-(3,4,5-trimethoxyphenyl)azetidin-2-one] | 5750 | 3920 | 5140 | 3270 |
| COc1ccc([C@H]2[C@@H](CC[Si](C)(C)C)C(=O)N2c2cc(OC)c(OC)c(OC)c2)cc1O [Compound 59, (3R,4R)-4-(3-hydroxy-4-methoxyphenyl)-1-(3,4,5-trimethoxyphenyl)-3-(2-(trimethylsilyl)ethyl)azetidin-2-one] | 7540 | 9140 | 6440 | 5630 |
| COc1ccc([C@H]2[C@H](n3cc(CO)nn3)C(=O)N2c2cc(OC)c(OC)c(OC)c2)cc1O [Compound 61, (3S,4S)-4-(3-hydroxy-4-methoxyphenyl)-3-(4-(hydroxymethyl)-1H-1,2,3-triazol-1-yl)-1-(3,4,5-trimethoxyphenyl)azetidin-2-one] | 15 | 33 | 28 | 83 |
| COc1ccc([C@H]2[C@@H](C)C(=O)N2c2cc(OC)c(OC)c(OC)c2)cc1OS(=O)(=O)F [Compound 108, 2-methoxy-5-((2R,3R)-3-methyl-4-oxo-1-(3,4,5-trimethoxyphenyl)azetidin-2-yl)phenyl sulfofluoridate] | 35 | 54 | 40 | 62 |
